Measurements published in PubChem BioAssay AID2060626 (Molecular Pharmacology Branch, DTP, NCI, 2025).

Tested on: 168753-222-R-J1-PDC complex spheroid viability
Test: Anticancer human tumor 168753-222-R-J1-PDC patient-derived bladder carcinoma cell line growth inhibition [CLK]
Conditions: for IC50: curve of first compound; for viability, T/C: stronger effect = lower value; active means viability on the fitted dose curve at most 10% of control; inactive means the rest
Text: A high-throughput screen of multi-cell type tumor spheroids was designed to identify active combinations of […] and targeted small molecules. Complex spheroids include a stromal component modeled by human endothelial cells (HUVEC) and fibroblasts modeled by human mesenchymal stem cells (MSCs). The concentration ranges selected for each drug and investigational agent were based upon clinically achievable concentrations if the clinical Cmax of the agent was known.
Compounds. The drugs and investigational agents: cirtuvivint (SM08502; NSC835563), CC-671 (NSC850746), vemurafenib (NSC761431), tapotoclax (NSC804041), sotorasib (NSC818433), adagrasib (NSC831453), MRTX-1133 (NSC836407), BAY2416964 (NSC825713), copanlisib (NSC816437), inavolisib (NSC800729), abemaciclib (NSC768073), osimertinib (NSC779217), entinostat (NSC756642), eltanexor (KPT-8602, NSC794443), venetoclax (NSC766270), ceralasertib (NSC777638), bortezomib (NSC756655), olaparib (NSC753686), talazoparib (NSC767125), alisertib (NSC759677), peposertib (NSC802822), gemcitabine (NSC613327), 5-fluorouracil (NSC19893), SN-38 (NSC673596), oxaliplatin (NSC266046), paclitaxel (NSC125973), and doxorubicin (NSC123127), were obtained from the National Cancer Institute (NCI) Developmental Therapeutics Program Chemical Repository. The FDA-approved anticancer drug set is available from the Developmental Therapeutics Program at https://dtp.cancer.gov/organization/dscb/obtaining/available plates.htm. […] The stock solutions were prepared in dimethyl sulfoxide (DMSO, Sigma-Aldrich, St. Louis, MO, cat. D2650), except for the platinum complexes which were prepared in saline (Quality Biological, Gaithersburg, MD, cat. 114-055-101), at 800-fold the tested concentration and stored at -70 degrees C prior to their use. All drugs and investigational agents were tested over a range starting from a high concentration at or near the clinical Cmax and decreasing in half-log increments. If the clinical Cmax for an agent had not been determined, the highest concentration tested was 10 microM.
Cell Culture. All cells were maintained in an incubator at 37 degrees C and 5% CO2 with 95% humidity. The PDC lines were cultured according to standard operating procedures established by the NCI PDMR. Briefly, all PDCs were thawed and cultured in Matrigel-coated flasks prepared with a working solution of 1X Ham's F-12 nutrient mix, without supplementation (Invitrogen, Waltham, MA, cat. 11765054), 100 U/mL penicillin-streptomycin (Invitrogen, cat. 15140122), and 2.5% Matrigel (Corning Inc., Corning, NY, cat. 354248) for the first three passages. The 947758-054-R-J2-PDC line was cultured in 6B/Colon 1A media, which includes advanced DMEM/F-12 (Thermo Fisher Scientific, cat. 12634028), 10 mM HEPES (Thermo Fisher Scientific, cat. 15630080), 1X GlutaMAX supplement (Thermo Fisher Scientific, cat. 35050061), 0.1 mg/mL primocin (InvivoGen, cat. ant-pm-2), 10% defined fetal bovine serum, heat inactivated (HyClone Laboratories Inc., cat. SH30070.03HI), 1.25 mM N-Acetyl-L-cysteine (Sigma-Aldrich, cat. A9165), 10 mM nicotinamide (Sigma-Aldrich, cat. N0636), 1X B-27 supplement (Thermo Fisher Scientific, cat. 17504044), 1X N-2 supplement (Thermo Fisher Scientific, cat. 17502048), and 10 microM Y-27632 dihydrochloride (Tocris Bioscience, cat. 1254). The 876862-298-R-J1-PDC was cultured in 6E media, which includes all 6B/Colon 1A media components plus 50% L-WRN conditioned media (ATCC, cat. CRL-3276), 50 ng/mL recombinant human EGF recombinant protein (hEGF; Thermo Fisher Scientific, cat. PHG0311), 10 ng/mL recombinant human fibroblast growth factor 10 (hGFG-10; PeproTech, cat. 100-26), 1 ng/mL recombinant human fibroblast growth factor 2 (hFGF-2; PeproTech, cat. 100-18B), and 1 µM prostaglandin E2 (PGE2; Tocris, cat. 2296). The 227483-062-R1-J1-PDC line was cultured in Panc media, containing all 6E components except hFGF-2, with the addition of 500 nM SB-431542 (Selleckchem, cat. S1067) and 10 nM gastrin (Tocris, cat. 3006). […]

[1] = second compound 0.0316 µM, first compound 0.0316 µM
[2] = second compound 0.0316 µM, first compound 0.1 µM
[3] = second compound 0.0316 µM, first compound 0.316 µM
[4] = second compound 0.0316 µM, first compound 1 µM
[5] = second compound 0.0316 µM, first compound 3.16 µM
[6] = second compound 0.0316 µM, first compound 10 µM
[7] = second compound 0.1 µM, first compound 0.0316 µM
[8] = second compound 0.1 µM, first compound 0.1 µM
[9] = second compound 0.1 µM, first compound 0.316 µM
[10] = second compound 0.1 µM, first compound 1 µM
[11] = second compound 0.1 µM, first compound 3.16 µM
[12] = second compound 0.1 µM, first compound 10 µM
[13] = second compound 0.316 µM, first compound 0.0316 µM
[14] = second compound 0.316 µM, first compound 0.1 µM
[15] = second compound 0.316 µM, first compound 0.316 µM
[16] = second compound 0.316 µM, first compound 1 µM
[17] = second compound 0.316 µM, first compound 3.16 µM
[18] = second compound 0.316 µM, first compound 10 µM
[19] = second compound 1 µM, first compound 0.0316 µM
[20] = second compound 1 µM, first compound 0.1 µM
[21] = second compound 1 µM, first compound 0.316 µM
[22] = second compound 1 µM, first compound 1 µM
[23] = second compound 1 µM, first compound 3.16 µM
[24] = second compound 1 µM, first compound 10 µM
[25] = second compound 3.16 µM, first compound 0.0316 µM
[26] = second compound 3.16 µM, first compound 0.1 µM
[27] = second compound 3.16 µM, first compound 0.316 µM
[28] = second compound 3.16 µM, first compound 1 µM
[29] = second compound 3.16 µM, first compound 3.16 µM
[30] = second compound 3.16 µM, first compound 10 µM
[31] = second compound 10 µM, first compound 0.0316 µM
[32] = second compound 10 µM, first compound 0.1 µM
[33] = second compound 10 µM, first compound 0.316 µM
[34] = second compound 10 µM, first compound 1 µM
[35] = second compound 10 µM, first compound 3.16 µM
[36] = second compound 10 µM, first compound 10 µM
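Further: viability measured after seven days of drug exposure.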
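Wherever viability, T/C is given: luminescence signal used as surrogate for viable cell amount; 100% = DMSO vehicle control wells.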

CCCS(=O)(=O)Nc1ccc(F)c(C(=O)c2c[nH]c3ncc(-c4ccc(Cl)cc4)cc23)c1F + CN1CCN(c2cc(C(=O)Nc3cc4cc(-c5cnn(C)c5)ccc4cn3)ccn2)CC1
active: viability, T/C [19] 0.38% | viability, T/C [20] 0.46% | viability, T/C [21] 0.31% | viability, T/C [22] 0.33% | viability, T/C [23] 0.96% | viability, T/C [24] 2.48% | viability, T/C [25] 0.11% | viability, T/C [26] 1.81% | viability, T/C [27] 0.12% | viability, T/C [28] 0.11% | viability, T/C [29] 2.3% | viability, T/C [30] 1.36% | viability, T/C [31] 0.16% | viability, T/C [32] 2.21% | viability, T/C [33] 0.61% | viability, T/C [34] 0.3% | viability, T/C [35] 3.61% | viability, T/C [36] 3.12%
> 10000 nM: IC50 (second compound 0.0316 µM)
7830 nM: IC50 (second compound 0.1 µM)
inactive: viability, T/C [1] 96.7% | viability, T/C [2] 116% | viability, T/C [3] 112% | viability, T/C [4] 122% | viability, T/C [5] 112% | viability, T/C [6] 59.5% | viability, T/C [7] 80.1% | viability, T/C [8] 94.7% | viability, T/C [9] 58.3% | viability, T/C [10] 88.5% | viability, T/C [11] 86.5% | viability, T/C [12] 41.5% | viability, T/C [13] 15.8% | viability, T/C [14] 17.8% | viability, T/C [15] 16% | viability, T/C [16] 14.7% | viability, T/C [17] 20.1% | viability, T/C [18] 22.1%
< 31.6 nM: IC50 (second compound 0.316 µM) | IC50 (second compound 1 µM) | IC50 (second compound 3.16 µM) | IC50 (second compound 10 µM)

COC1C=CCC(C)C(C)S(=O)(=O)NC(=O)c2ccc3c(c2)N(CC2CCC21)CC1(CCCc2cc(Cl)ccc21)CO3 (centres undefined) + CN1CCN(c2cc(C(=O)Nc3cc4cc(-c5cnn(C)c5)ccc4cn3)ccn2)CC1
inactive: viability, T/C [1] 77.2% | viability, T/C [2] 101% | viability, T/C [3] 68.9% | viability, T/C [4] 48.4% | viability, T/C [5] 27.6% | viability, T/C [6] 14.2% | viability, T/C [7] 67.5% | viability, T/C [8] 58.4% | viability, T/C [9] 43.9% | viability, T/C [10] 21.8% | viability, T/C [11] 18% | viability, T/C [12] 12.6% | viability, T/C [13] 17.1% | viability, T/C [14] 12.4% | viability, T/C [15] 13.3%
< 31.6 nM: IC50 (second compound 0.316 µM) | IC50 (second compound 1 µM) | IC50 (second compound 3.16 µM) | IC50 (second compound 10 µM)
936 nM: IC50 (second compound 0.0316 µM)
active: viability, T/C [16] 8.91% | viability, T/C [17] 9.07% | viability, T/C [18] 3.48% | viability, T/C [19] 0.33% | viability, T/C [20] 3.47% | viability, T/C [21] 0.21% | viability, T/C [22] 0.82% | viability, T/C [23] 2.3% | viability, T/C [24] 1.79% | viability, T/C [25] 0.17% | viability, T/C [26] 0.15% | viability, T/C [27] 3.67% | viability, T/C [28] 0.12% | viability, T/C [29] 0.15% | viability, T/C [30] 0.59% | viability, T/C [31] 0.4% | viability, T/C [32] 0.21% | viability, T/C [33] 2.52% | viability, T/C [34] 0.21% | viability, T/C [35] 0.23% | viability, T/C [36] 1.62%
191 nM: IC50 (second compound 0.1 µM)
